The results in this text go back to publication PMC12040169 (PLOS Biology, 2025).

Each structure is given as a SMILES string.

The nature of this series: in vitro. The conditions noted are these: human, hela cells, % viability.

Turning to `Cn1c2c(c3ccccc31)CCOC21CCN(CC2CCCCO2)CC1` (centres unmarked) [CBK040649], the viability at 28.5 h, 10 µM amounted to 87.9%. As to `O=C(O)CCC(=O)N1CCN(S(=O)(=O)c2ccc(F)cc2)CC1` [CBK286956], the viability at 28.5 h, 10 µM came out at 93.2%. Then `O=C(Cc1ccc(F)cc1)N1CC[C@@H](c2ccccc2)[C@H](O)C1` [CBK283714], with 84.5%; and `Cc1nc2c(C(=O)NCC3CCCO3)cnn2c(C)c1Cc1cccnc1` (centres unmarked) [CBK162160], with 85.8%. Regarding `COc1ccc(C(=O)Nc2ccc(S(=O)(=O)N3CCN(C)CC3)cc2)cc1` [CBK267622], the viability at 28.5 h, 10 µM was determined as 92.8%.

For `CC1OC(n2ccc(=S)[nH]c2=O)C(O)C1O` (centres unmarked) [CBK012231], the viability at 28.5 h, 10 µM was 103%.

Consider `Nc1cc(-c2ccccc2)nn1-c1ccc(C(=O)O)cc1` [CBK286565], for which the viability at 28.5 h, 10 µM was found to be 84.9%. The figure for `CCCC/C=C/c1cn2ccnc2c(NCc2cc(OC)c(OC)c(OC)c2)n1` [CBK066331] is 93.1%; for `O=C(O)CSc1nc(Nc2ccccc2)nc(N2CCOCC2)n1` [CBK269023] it is 107%; for `CN(C)C(=O)CO[C@@H]1CO[C@H]2[C@@H]1OC[C@@H]2Nc1nccc(-c2cccc(F)c2)n1` [CBK289533] it is 87.9%.

On to `CC1(N2CCOCC2)CC2(O)C(=[N+]1[O-])CCc1c2no[n+]1[O-]` (centres unmarked) [CBK261516], for which the viability at 28.5 h, 10 µM was 90.5%.

Consider `OCCn1nc(C2CCCC2)nc1CCc1c[nH]c2ccccc12` [CBK307509], for which the viability at 28.5 h, 10 µM was determined as 85.1%. Then `O=C(c1cc2cc(F)ccc2[nH]1)N1CCN(c2ncccn2)CC1` [CBK107280], with 91.8%; and `CSc1ccccc1C(=O)Nc1sc2c(c1C#N)CCN(C(C)=O)C2` [CBK304183], with 55.3%. Then `Cc1ccccc1NC(=O)NCc1ccccc1F` [CBK105832], with 97.4%; and `CN(CCC#N)S(=O)(=O)c1ccc(Cl)c(Cl)c1` [CBK045396], with 91.8%; and `O=C(C1=Cc2ccccc2OC1)N1CCn2cc(C(F)(F)F)nc2C1` [CBK283913], with 103%. As to `COc1cccc(CNC(=O)c2cn[nH]c2-c2cccc(C)c2)c1` [CBK288056], the viability at 28.5 h, 10 µM amounted to 102%. Then `Cc1ccc(SCCNc2nc3c([nH]2)c(=O)n(C)c(=O)n3C)cc1` [CBK269887], with 92.7%. The figure for `COc1cccc(/C=N/NC(=O)CSc2nnc(C)n2-c2ccccc2)c1O` [CBK262758] is 80.7%; for `CC(C)CC(C(=O)Nc1nnc(C(C)C)s1)N1C(=O)c2ccccc2C1=O` (centres unmarked) [CBK091610] it is 77.3%.

As for `CC(C)NC(=O)[C@H]1CN2CCC1C[C@@H]2Cn1cc(-c2cccc(O)c2)nn1` (some centres unmarked) [CBK288731], the viability at 28.5 h, 10 µM stood at 91.7%. Then `O=C(NCc1ccc2occc2c1)C1(c2ccccc2)CCCC1` [CBK149525], with 116%.

In the case of `CCCC(=O)Nc1nnc(-c2ccc(C)cc2C)o1` [CBK287700], the viability at 28.5 h, 10 µM came to 107%. The figure for `CCC1CN(CC(=O)NCc2ccc(OCC(N)=O)cc2)CCO1` (centres unmarked) [CBK305774] is 102%; for `N#CCCCN1CCC(Oc2nccnc2OCc2ccc(Br)cc2F)CC1` [CBK153647] it is 94.7%. Then `CC(=O)Oc1ccc(NC(=O)CC2Nc3cc(C)c(C)cc3NC2=O)cc1` (centres unmarked) [CBK263088], with 89.5%; and `CCN(CC)CC(C)C(O)(c1ccccc1)c1ccccc1` (centres unmarked) [CBK012065C], with 95%. The figure for `Cn1cc(CN2CCCN(C(=O)c3ccc4ccccc4n3)CC2)cn1` [CBK305369] is 102%. On to `Cn1ccnc1SCC(=O)Nc1ccc(I)cc1` [CBK057541], for which the viability at 28.5 h, 10 µM was 85.3%. With `O=C(Nc1ccccc1)NC1CC2CCC(C1)N2Cc1nnnn1Cc1ccco1` (centres unmarked) [CBK085071], the viability at 28.5 h, 10 µM stood at 107%. Then `Cc1ccc(S(=O)(=O)CC(CN2CCOCC2)N2CCOCC2)cc1` (centres unmarked) [CBK264590], with 99.1%; and `O=c1c2cc(OCc3ccc(Cl)cc3)ccc2nc2n1CCC2` [CBK287977], with 91.6%; and `CCCC1=NNC(=O)/C1=C\c1cnc[nH]1` [CBK067767], with 105%.

For `CC(NC(=O)CC(F)(F)F)c1nc(-c2ccncc2)cs1` (centres unmarked) [CBK306370], the viability at 28.5 h, 10 µM turned out to be 88.5%. The figure for `O=C(CO)N1CC2(CCN(Cc3ccc4ccccc4c3)CC2)c2ccccc21` [CBK131501] is 88.7%. The figure for `C=CCNC(CC(=O)Nc1ccc(C)c(Cl)c1)C(=O)O` (centres unmarked) [CBK266892] is 92.8%; for `Cc1cc(NS(=O)(=O)c2ccc(NC(=O)c3ccc(Br)cc3)cc2)no1` [CBK265371] it is 95.6%; for `Cc1cc(C)nc(N2CCC(CC(=O)N(C)CC(C)c3ccccc3)CC2)n1` (centres unmarked) [CBK286105] it is 83.5%. The figure for `C=CCNC(=O)N[C@H]1[C@H](O)[C@@H](N2CCN(c3ccccc3OC)CC2)[C@@H]2OC[C@H]1O2` [CBK288818] is 89.7%. As for `O=C(O)CNS(=O)(=O)c1c(F)c(F)c(F)c(F)c1F` [CBK269986], the viability at 28.5 h, 10 µM came to 84.6%. The figure for `COc1ccc(C(=O)OC(C)(C)C)c(-c2nccnc2N[C@@H](C)c2ccccc2)c1` [CBK036994] is 94.2%; for `S=C(NCc1ccc(Cl)cc1)Nc1ccncc1` [CBK016651] it is 79.5%. Turning to `O=C(C1CCCCC1)N1CCC(n2nc(C3CC3)ccc2=O)CC1` [CBK284240], the viability at 28.5 h, 10 µM amounted to 90.7%. Then `CCc1cc(=O)[nH]c(-c2ccc(N3CCCC3C(=O)N(C)C)nc2)n1` (centres unmarked) [CBK304197], with 89.2%.

As to `CC(=O)Nc1nc(NC(C)=O)n(-c2ccccc2)n1` [CBK287938], the viability at 28.5 h, 10 µM stood at 86%. For `CCc1ccc(CN2CCN(C(=O)c3ccncc3)CC2)cc1` [CBK301211G], the viability at 28.5 h, 10 µM worked out at 92.7%. The figure for `CCOC(=O)CC1SC(NS(=O)(=O)c2ccc(Br)cc2)=NC1=O` (centres unmarked) [CBK014126] is 93.5%.

For the molecule `Cc1cc(OC(F)(F)F)ccc1NS(=O)(=O)c1ccc(-c2ccon2)s1` [CBK062361], the viability at 28.5 h, 10 µM was 86.7%. `CCCn1cc(NC(=O)NC(CC)(CO)c2ccccc2)ccc1=O` (centres unmarked) [CBK305060]: the viability at 28.5 h, 10 µM is 104%.

On to `CCOCC(=O)N(C)C(CO)c1cc(OC)ccc1Br` (centres unmarked) [CBK304722], for which the viability at 28.5 h, 10 µM is 90%. Then `Cc1ccc(-c2nnc([C@H]3CCN(C(=O)NCc4ccccc4)C3)o2)cc1` [CBK289411], with 93%; and `O=C(NCC1CCCCC1)C1(Cc2ccc(-c3cccnc3)cc2)CCOCC1` [CBK285591], with 92.6%. On to `CS(=O)(=O)c1ccc(-c2ccc(COC3CCN(C(=O)Cc4cccc(C(F)(F)F)c4)CC3)cn2)cc1` [CBK162231T], for which the viability at 28.5 h, 10 µM was 102%. The figure for `C#CCNC(=O)C1CCN(c2nc3ccccc3n2CC)CC1` [CBK283923] is 89.4%; for `CCOc1ccc(-c2ccnc(C)n2)cc1C(=O)O` [CBK306505] it is 104%. For the molecule `CC(=O)NCC1CC(=O)N(c2ccc(Br)cc2)C1` (centres unmarked) [CBK008134], the viability at 28.5 h, 10 µM came to 109%. As for `CCc1cccc(-n2nc(C)c3c2NC(=O)CC3C(=O)c2ccc(CC)s2)c1` (centres unmarked) [CBK294435], the viability at 28.5 h, 10 µM was found to be 113%.

As for `Cc1cc(C(=O)CSc2nnc(C(C)C)n2Cc2ccco2)c(C)n1C` [CBK295178], the viability at 28.5 h, 10 µM was found to be 81.9%.

As to `CC(C)(CN)CN(Cc1cccc(Cl)c1)C(=O)Nc1ccc2c(c1)OCO2` [CBK002482C], the viability at 28.5 h, 10 µM is 107%. For the molecule `Cc1ccc(NC(=O)c2ccncc2)cc1C` [CBK174646], the viability at 28.5 h, 10 µM came to 97.5%.

As to `O=C(CN1CCN(c2ccc([N+](=O)[O-])cn2)CC1)Nc1ccc2c(c1)OCO2` [CBK074679], the viability at 28.5 h, 10 µM was 115%.

`CCn1cc(-c2nc3cc(S(=O)(=O)NC(C)C)ccc3n2C(C)C)cn1` [CBK307311]: the viability at 28.5 h, 10 µM was found to be 98.7%. Then `O=C(O)CCC(=O)Nc1ccccc1NC(=O)c1ccc(C(F)(F)F)cc1` [CBK265770], with 102%; and `Cc1cc(CNC(=O)CCc2c(C)nc3nc(N)nn3c2C)ccc1F` [CBK306212], with 91.9%; and `CC(=O)Nc1ccc(OCC(O)Cn2nc(-c3ccco3)oc2=O)cc1` (centres unmarked) [CBK305615], with 97.9%. Take `Cc1oc(C(=O)O)cc1CSC(C)C(=O)O` (centres unmarked) [CBK263556]: the viability at 28.5 h, 10 µM amounted to 93.8%. Then `CCCCOC(=O)CCNc1n[nH]c(=O)[nH]c1=O` [CBK027838], with 97.3%.

For the molecule `COc1ccc(C(=O)C(C)OC(=O)c2ccc3ccccc3n2)cc1` (centres unmarked) [CBK111937], the viability at 28.5 h, 10 µM came out at 99%. Then `Cn1cc(CCCCNC(=O)Cc2c[nH]c3ccc(Cl)cc23)cn1` [CBK306364], with 76%.

As for `OCCN(Cc1cccs1)Cc1c[nH]nc1-c1cccs1` [CBK282599], the viability at 28.5 h, 10 µM came out at 86%.

As to `CC(C)NC(=O)CC[C@@H]1CNC(=O)[C@@H]2C[C@H](NC(=O)c3ccccc3)CN12` [CBK289002], the viability at 28.5 h, 10 µM came to 90.9%. The figure for `Cc1ccc(CSCC(=O)NCCN2CCOCC2)cc1` [CBK269327] is 90.4%; for `CC(=O)N[C@H]1CC[C@]2(C)CCC([C@H](C)C(=O)NC3CCCC3)[C@H](O)[C@H]2[C@@H]1C` (some centres unmarked) [CBK289436] it is 79.6%. Then `O=C(Cc1ccc(Cl)c(Cl)c1)NC(c1ccccc1)c1ccccn1` (centres unmarked) [CBK144110], with 92.8%; and `Cc1nc(-c2ccccc2)c(CC(=O)N(C)CCN(C)C)s1` [CBK282725], with 83.3%.

Consider `CCC1CCCCN1C(=O)CCc1c(C)nc(-c2ccccc2)[nH]c1=O` (centres unmarked) [CBK305608], for which the viability at 28.5 h, 10 µM was determined as 87.5%. As for `CN(C)CCCNc1ccc(C(F)(F)F)cn1` [CBK269414], the viability at 28.5 h, 10 µM was 86.2%. With `c1ccc(C(Oc2nccnc2-c2ccsc2)c2ccccc2)cc1` [CBK106765], the viability at 28.5 h, 10 µM amounted to 103%. Consider `CN(C)S(=O)(=O)c1ccc(C(=O)Nc2cccc(N3Cc4ccccc4C3)c2)cc1` [CBK266025], for which the viability at 28.5 h, 10 µM amounted to 98.8%.
